# How the values were obtained:
# Assay in all cases: Post-Emergence Test (herbicidal, glasshouse pots)
# Type in all cases: in vivo
# Details in all cases: evaluated after 13 days
# [1] = test system: Ipomoea hederacea (IPOHE)
# Protocol: (§1) Seeds of a variety of test species are sown in standard soil in pots (Setaria faberi (SETFA), Ipomoea hederacea (IPOHE), Echinochloa crus-galli (ECHCG), (Amaranthus retoflexus (AMARE), Zea mays (ZEAMX), and Amaranthus palmeri (AMAPA)). After 8 days cultivation under controlled conditions in a glasshouse (at 24° C./16° C., day/night; 14 hours light; 65% humidity), the plants arm sprayed with an aqueous spray solution derived from the formulation of the technical active ingredient in acetone/water (50:50) solution containing 0.5% Tween 20 (polyoxyethylene sorbitan monolaurate, CAS RN 9005-84-5). Rate of application is shown in g/ha in the tables below. The test plants are then grown in a glasshouse under controlled conditions in a glasshouse (at 24° C./16° C., day/night; 14 hours light; 65% humidity) and watered twice daily. After 13 days the test is evaluated for the percentage damage caused to the plant. The biological activities are shown in the following table on a five-point scale (5=81-100%; 4=61-80%; 3=41-60%; 2=21-40%; 1=0-20%; -=not tested).
# [2] = test system: Zea mays (ZEAMX)
# Protocol: as §1
# [3] = test system: Amaranthus retoflexus (AMARE)
# Protocol: as §1
# [4] = test system: Echinochloa crus-galli (ECHCG)
# Protocol: as §1
# [5] = test system: Amaranthus palmeri (AMAPA)
# Protocol: as §1
SMILES,Post-Emergence Test IPHOE percentage damage (five-point scale) ([1]; rate 250 g/ha),Post-Emergence Test ZEAMX percentage damage (five-point scale) ([2]; rate 250 g/ha),Post-Emergence Test AMARE percentage damage (five-point scale) ([3]; rate 250 g/ha),Post-Emergence Test ECHCG percentage damage (five-point scale) ([4]; rate 250 g/ha),Post-Emergence Test AMAPA percentage damage (five-point scale) ([5]; rate 250 g/ha),Post-Emergence Test IPHOE percentage damage (five-point scale) ([1]; rate 1000 g/ha),Post-Emergence Test ZEAMX percentage damage (five-point scale) ([2]; rate 1000 g/ha),Post-Emergence Test AMARE percentage damage (five-point scale) ([3]; rate 1000 g/ha),Post-Emergence Test ECHCG percentage damage (five-point scale) ([4]; rate 1000 g/ha),Post-Emergence Test AMAPA percentage damage (five-point scale) ([5]; rate 1000 g/ha)
"CCn1c(Nc2ccccc2F)cc(=O)c(C(=O)O)c1-c1ccc(Cl)c(Cl)c1 [Compound 1, 2-(3,4-dichlorophenyl)-1-ethyl-6-(2-fluoroanilino)-4-oxo-pyridine-3-carboxylic acid]",2 (2=21-40%),0,1 (1=0-20%),0,1 (1=0-20%),,,,,
"CCn1c(OC)cc(=O)c(C(=O)O)c1-c1ccc(Cl)c(Cl)c1 [Compound 5, 2-(3,4-dichlorophenyl)-1-ethyl-6-methoxy-4-oxo-pyridine-3-carboxylic acid]",3 (3=41-60%),2 (2=21-40%),0,3 (3=41-60%),0,,,,,
"CCn1c(Oc2cc(Cl)cc(Cl)c2)cc(=O)c(C(=O)O)c1-c1ccc(Cl)c(Cl)c1 [Compound 16, 6-(3,5-dichlorophenoxy)-2-(3,4-dichlorophenyl)-1-ethyl-4-oxo-pyridine-3-carboxylic acid]",,,,,,2 (2=21-40%),1 (1=0-20%),2 (2=21-40%),1 (1=0-20%),1 (1=0-20%)
"CCn1c(Oc2ccc(Cl)cc2Cl)cc(=O)c(C(=O)O)c1-c1ccc(Cl)c(Cl)c1 [Compound 24, 6-(2,4-dichlorophenoxy)-2-(3,4-dichlorophenyl)-1-ethyl-4-oxo-pyridine-3-carboxylic acid]",,,,,,1 (1=0-20%),1 (1=0-20%),1 (1=0-20%),0,1 (1=0-20%)
"CCn1c(Oc2cc(Cl)cc(OC)c2)cc(=O)c(C(=O)O)c1-c1ccc(Cl)c(Cl)c1 [Compound 25, 6-(3-chloro-5-methoxy-phenoxy)-2-(3,4-dichlorophenyl)-1-ethyl-4-oxo-pyridine-3-carboxylic acid]",,,,,,1 (1=0-20%),0,1 (1=0-20%),0,1 (1=0-20%)
"CCn1c(Nc2ccc(Cl)cc2F)cc(=O)c(C(=O)O)c1-c1ccc(Cl)c(Cl)c1 [Compound 29, 6-(4-chloro-2-fluoro-anilino)-2-(3,4-dichlorophenyl)-1-ethyl-4-oxo-pyridine-3-carboxylic acid]",,,,,,3 (3=41-60%),0,2 (2=21-40%),0,2 (2=21-40%)
"CCn1c(Nc2cccc(Cl)n2)cc(=O)c(C(=O)O)c1-c1ccc(Cl)c(Cl)c1 [Compound 30, 6-[(6-chloro-2-pyridyl)amino]-2-(3,4-dichlorophenyl)-1-ethyl-4-oxo-pyridine-3-carboxylic acid]",,,,,,2 (2=21-40%),1 (1=0-20%),2 (2=21-40%),0,2 (2=21-40%)

# — patent US20250324971A1, “HERBICIDAL DERIVATIVES” (SYNGENTA CROP PROTECTION AG, priority 2022, published 2025)
